Earlier results, collected in publication PMC12689647, “Evaluation of bromadiolone combined with ciprofloxacin, vitamin D, aspirin, and cinnamon as an apoptosis-mediated rodenticide strategy” (Scientific Reports, 2025).

What was measured:
G361 HMM cells = details: cited from earlier work
CYP1A = details: co-administration, many animal species; cited from earlier work
Albino rats = details: repeated doses (1 g/kg); cited from earlier work

In the case of O=c1ccc2cc(O)c(O)cc2o1 [esculetin], the “effect on apoptotic signaling molecules” value (G361 HMM cells) is listed as “activated apoptotic signaling molecules such as caspase-3 and PARP”.

For O=C(O)c1cn(C2CC2)c2cc(N3CCNCC3)c(F)cc2c1=O [Ciprofloxacin], the “effect on CYP1A activity in hepatic microsomes” value (CYP1A) is listed as “inhibits CYP1A activity”.

In the case of CC(=O)Oc1ccccc1C(=O)O [acetylsalicylic acid, Acetylsalicylic acid], the “toxic effects of repeated doses” value (Albino rats) is given as “varying degrees of gastroenteritis, hepatitis, nephritis, pulmonary edema”.
